The text below walks through data of ChEMBL document CHEMBL2440108, “Synthesis and enzymatic evaluation of phosphoramidon and its β anomer: Anomerization of α-l-rhamnose triacetate upon phosphitylation” (Bioorg Med Chem, 2013).

The target of test [1] is T1, Thermolysin (Bacillus thermoproteolyticus, UniProt P00800).
T1 sequence (P00800 whole entry): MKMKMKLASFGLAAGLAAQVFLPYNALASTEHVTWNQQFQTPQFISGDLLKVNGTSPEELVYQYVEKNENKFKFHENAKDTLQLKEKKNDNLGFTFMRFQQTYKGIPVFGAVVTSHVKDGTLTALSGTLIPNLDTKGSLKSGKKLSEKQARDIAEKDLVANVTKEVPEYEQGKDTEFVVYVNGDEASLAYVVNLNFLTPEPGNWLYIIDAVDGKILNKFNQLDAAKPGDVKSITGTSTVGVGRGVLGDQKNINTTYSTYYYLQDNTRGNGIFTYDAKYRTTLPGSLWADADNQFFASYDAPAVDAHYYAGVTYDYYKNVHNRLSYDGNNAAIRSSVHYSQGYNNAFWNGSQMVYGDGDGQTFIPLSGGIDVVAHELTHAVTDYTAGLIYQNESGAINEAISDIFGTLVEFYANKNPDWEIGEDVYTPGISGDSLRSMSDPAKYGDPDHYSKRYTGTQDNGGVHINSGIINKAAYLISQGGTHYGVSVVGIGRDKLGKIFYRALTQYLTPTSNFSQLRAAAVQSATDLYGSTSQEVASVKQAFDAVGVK
Put plainly: Inhibition of Bacillus thermoproteolyticus thermolysin using […] as substrate at pH 7.5 after 15 mins by Henderson plot analysis.

For test [2], the target named is T1, Thermolysin. The experiment in a line: Binding affinity to Bacillus thermoproteolyticus thermolysin at pH 7.5 after 15 mins by fluorescence spectrophotometry.
Test [3] can be described thus: Inhibition of endothelin-converting enzyme (unknown origin). Set-up: species or system Homo sapiens.
Test [4] concerns the target T1, Thermolysin. The experiment in a line: Inhibition of Bacillus thermoproteolyticus thermolysin.

pIC50, pKd, pKi: −log10 of the molar value.

A word on the pKi: it is the Ki on a negative log10 scale, so that one unit is a factor of ten. Low readings indicate a large Ki, high ones a small Ki. The term pKd denotes the negative decadic logarithm of the Kd, by convention in mol/L. A higher pKd goes with a small Kd. `CC(C)C[C@H](NP(=O)(O)O[C@H]1O[C@@H](C)[C@H](O)[C@@H](O)[C@H]1O)C(=O)N[C@@H](Cc1c[nH]c2ccccc12)C(=O)O` had a pKi at Thermolysin [1] of 6.55. Further, the pKd on Thermolysin [2] was 6.68.
Broadly, the pIC50 is −log10 of the IC50, conventionally taken in molar units. Read a low pIC50 as a large IC50. Regarding `CC(C)C[C@H](NP(=O)(O)O[C@@H]1O[C@@H](C)[C@H](O)[C@@H](O)[C@H]1O)C(=O)N[C@@H](Cc1c[nH]c2ccccc12)C(=O)O`, the pKi on Thermolysin [1] is 7.52; on Thermolysin [4], 7.49. In test [3], this compound showed a pIC50 of 6.16.
